Consider nine compounds from US7652021B2, “Compounds useful for DPP-IV enzyme inhibition” (Sanofi-Aventis, priority 2003, dated 2010).

Molecules are shown by their SMILES. Where a name gives a salt, the structure may show the parent alone.

T1 sequence (P27487 whole entry): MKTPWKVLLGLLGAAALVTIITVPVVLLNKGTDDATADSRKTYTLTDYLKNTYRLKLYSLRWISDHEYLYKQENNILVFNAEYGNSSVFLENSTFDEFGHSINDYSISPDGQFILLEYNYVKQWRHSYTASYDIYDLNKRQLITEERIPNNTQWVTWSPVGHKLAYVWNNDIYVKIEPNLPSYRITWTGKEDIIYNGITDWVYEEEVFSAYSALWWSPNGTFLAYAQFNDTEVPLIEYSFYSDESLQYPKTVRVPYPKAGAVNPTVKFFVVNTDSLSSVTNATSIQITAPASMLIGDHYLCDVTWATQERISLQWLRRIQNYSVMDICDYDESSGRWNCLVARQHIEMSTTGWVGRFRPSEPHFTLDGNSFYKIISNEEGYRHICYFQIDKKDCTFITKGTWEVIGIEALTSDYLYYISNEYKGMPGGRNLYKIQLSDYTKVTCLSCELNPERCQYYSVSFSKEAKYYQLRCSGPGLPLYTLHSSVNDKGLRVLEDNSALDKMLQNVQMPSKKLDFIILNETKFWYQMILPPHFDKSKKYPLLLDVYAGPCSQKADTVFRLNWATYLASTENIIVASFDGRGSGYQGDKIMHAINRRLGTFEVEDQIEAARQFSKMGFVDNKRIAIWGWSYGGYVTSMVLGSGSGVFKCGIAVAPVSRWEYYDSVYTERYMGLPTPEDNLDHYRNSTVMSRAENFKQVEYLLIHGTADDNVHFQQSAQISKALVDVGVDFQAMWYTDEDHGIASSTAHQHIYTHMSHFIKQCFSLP

The first data set has as its target T1, DPP-IV enzyme (solubilized crude extractum from CaCo/Tc-7 cells) (Homo sapiens, UniProt P27487).
T1 construct: solubilized crude extractum from CaCo/Tc-7 cells; endogenous in cells; host or cells: CaCo/Tc-7 cells (solubilized crude extract)
The data set can be described thus: DPP-IV enzyme inhibitory activity, fluorometric H-Gly-Pro-AMC assay. The class given is biochemical. The following applies: H-Gly-Pro-AMC substrate 250 μM final; 60 min preincubation at 37° C.; 30 min reaction at 37° C.; Tris-HCl pH=7.5. On the procedure:
DPP-IV enzyme inhibitory activties of the compounds with the general formula (I) were determined by the following method: […]
Applied Conditions of the Assay:
The reaction of the DPP-IV enzyme and the H-Gly-Pro-AMC substrate is recorded by the liberation of AMC (7-amino-4-methylcoumarin) at 37° C. in 100 mM Tris-HCl, pH=7.5 (assay buffer). Standard curve of AMC is linear up to 31.25 μM concentration, therefore we used the relative fluorescence unit (RFU) of the AMC formed. It is detected using 360 nm excitation and 465 emmission filters (integration time 30 μs, Gain 25, No. of Flashes 50) by Tecan Spectrofluor Plus plate reader. Under these conditions enzyme reaction is linear for at least 30 min, and the enzyme dependence is linear up to 2.5 μg protein (up to 700 RFU). Using 1-0.8 μg of extracted protein Km for H-Gly-Pro-AMC is 50 μM. Higher than 500 μM substrate concentration caused fluorescent detection problems (inner filter effect) that can be solved by dilution of the samples.
The assay is designed to detect as efficiently as possible the active inhibitors using a 60 min preincubation time at 37° C. The assay is conducted by adding 0.8-1 μg protein extract in 10 μl enzyme sulution (using assay buffer: 100 mM Tris-HCl, pH=7.5) to the wells containing the test compounds in 10 μl volume and the 55 μl assay buffer (65 μl assay buffer in the case of controlls). After the preincubation period, the reaction is started by the addition of 25 μlmM H-Gly-Pro-AMC substrate solution (250 μM final concentration). The final test volume is 100 μl and the test solution contains 1% DMSO coming from the test compounds solution. Reaction time is 30 min at 37° C., and the reaction is stopped by adding 300 μl 1M Na-acetate buffer, pH=4.2. The fluorescence (RFU) of AMC formed is detected using 360 nm excitation and 465 emission filters in Tecan spectrofluor Plus plate reader (30 μs integration time, Gain 25 No. of Flashes 50). Inhibition % are calculated using the RFU of control and RFU of blank.
What is called IC50 is the concentration that inhibits the measured activity by half. A low value points to higher potency. In turn, `N#C[C@H]1COCN1C(=O)CNC12CC3CC(C1)CC(Nc1ncccn1)(C3)C2` [Example 9, (4S)-3-{N-[3-(pyrimidin-2-ylamino)-1-adamantyl]glycyl}-1,3-oxazolidine-4-carbonitrile] came in with an IC50 of 21 nM. The same measure, in the same setting: the value for `N#C[C@@H]1CCCN1C(=O)CNC1C2CCC1CN(c1ncccn1)C2` (stereo partly drawn) [Example 40, (2S)-1-[N-(3-pyrimidin-2-yl-3-azabicyclo[3.2.1]oct-8-yl)glycyl]pyrrolidine-2-carbonitrile] was 30 nM.

`N#Cc1ccc(CNC23CC4CC(CC(NCC(=O)N5CC(F)(F)C[C@H]5C#N)(C4)C2)C3)cc1` [Example 27, (2S)-1-(N-{3-[(4-cyanobenzyl)amino]-1-adamantyl}glycyl)-4,4-difluoropyrrolidine-2-carbonitrile] showed an IC50 of 16 nM.

Tested on in another data set: not given
Assay: not given
Settings: not given
In general, melting point refers to the temperature, or range, at which the solid turns liquid. In turn, `N#C[C@@H]1CCCN1C(=O)CNC1C2CCC1CN(c1ncccn1)C2` (stereo partly drawn) (as salt: hydrochloride) [Example 40, (2S)-1-[N-(3-pyrimidin-2-yl-3-azabicyclo[3.2.1]oct-8-yl)glycyl]pyrrolidine-2-carbonitrile] displayed a melting point of 149 to 152 °C. Compound `N#C[C@@H]1CC(F)(F)CN1C(=O)CNC1C2CCC1CN(c1ncccn1)C2` (stereo partly drawn) gave a melting point of 50 to 52 °C. For `CC1(NCC(=O)N2CC(F)(F)C[C@H]2C#N)CC2CCC(C1)N2c1ncccn1.Cl.Cl` (stereo partly drawn), the melting point was 169 to 172 °C.

Consider `N#Cc1ccc(CNC23CC4CC(CC(NCC(=O)N5CC(F)(F)C[C@H]5C#N)(C4)C2)C3)cc1` (as salt: hydrochloride) [Example 27, (2S)-1-(N-{3-[(4-cyanobenzyl)amino]-1-adamantyl}glycyl)-4,4-difluoropyrrolidine-2-carbonitrile], for which the melting point was 226 to 231 °C. `N#C[C@H]1COCN1C(=O)CNC12CC3CC(C1)CC(Nc1ncccn1)(C3)C2` (as salt: hydrochloride) [Example 9, (4S)-3-{N-[3-(pyrimidin-2-ylamino)-1-adamantyl]glycyl}-1,3-oxazolidine-4-carbonitrile]: the melting point was 205 to 207 °C.

On to `Cl.Cl.N#C[C@@H]1CC(F)(F)CN1C(=O)CNC1C2CCC1CN(c1ncccn1)C2` (stereo partly drawn), for which the melting point was above 300 °C.
